The source of these data is patent publication US9040525B2, “Cyclic amide derivative” (MOCHIDA PHARMACEUTICAL CO., LTD., priority 2010, dated 2015).

This assay addresses T1, GPR40 of human origin (Homo sapiens, UniProt O14842).
T1 construct: expressed in transfected cells
Description: Agonist action on GPR40 of human origin (Ca2+ fluorescence, CHO cell strain stably expressing GPR40). The assay is classed as cell-based. Conditions: fluctuation of Ca2+ concentration. Here is the method:
A CHO cell strain stably expressing GPR40 of human origin was used to determine the agonist action of a title compound. This cell strain was seeded in a clear bottom 96 well plate at 2×10^4 cells/100 μL/well. The cell strain was cultured in a CO2 incubator overnight using a Ham's F-12 medium containing a 10% fetal bovine serum, 100 U/mL penicillin, 0.1 mg/mL streptomycin, and 400 μg/mL. Geneticin. Calcium 4 Assay Kit (Molecular Devices) was used as a fluorescent calcium indicator. One mL of 77 mg/mL probenecid (Invitrogen) was added to 100 mL of a calcium indicator solution to prepare a solution (loading solution) mixed with a 20 mM HEPES-containing Hanks' balanced salt solution (HBSS) in equal proportions. To the cells from which the culture solution was removed, 200 μL of the loading solution was added, and the cells were cultured in a CO2 incubator for 1 hour. The title compound was diluted with a 20 mM HEPES-containing HBSS and was added to the cells by 50 μL, and the fluctuation of the Ca^2+concentration was measured by an intracellular ion analyzer. The EC50 value of the title compound was calculated using the dose-response curve of fluorescence intensity variation.

T1 sequence (O14842 whole entry): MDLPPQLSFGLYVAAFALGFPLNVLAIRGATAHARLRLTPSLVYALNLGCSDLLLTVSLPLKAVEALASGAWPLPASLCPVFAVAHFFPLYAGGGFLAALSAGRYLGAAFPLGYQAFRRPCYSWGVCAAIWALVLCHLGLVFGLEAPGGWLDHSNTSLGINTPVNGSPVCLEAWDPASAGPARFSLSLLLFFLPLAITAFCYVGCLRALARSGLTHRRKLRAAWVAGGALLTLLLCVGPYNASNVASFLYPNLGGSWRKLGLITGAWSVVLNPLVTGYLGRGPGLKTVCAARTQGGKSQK

The compound `Cc1cc(OCCC(C)(C)O)cc(C)c1-c1cccc2c1CC[C@H]2Oc1ccc(C2CC(=O)NS(=O)(=O)C2)cc1` (stereo partly drawn) [Example 34, 5-(4-(((R)-4-(4-(3-hydroxy-3-methylbutoxy)-2,6-dimethylphenyl)-2,3-dihydro-1H-inden-1-yl)oxy)phenyl)-1,1-dioxo-1,2-thiazinan-3-one] came in with a half-maximal effective concentration (EC50) below 300 nM.

Take `Cc1cc(OCCC(C)(C)O)nc(C)c1-c1cccc(COc2ccc(C3CC(=O)NS(=O)(=O)C3)cc2)c1` (centres unmarked) [Example 35, 5-[4-[[3-[6-(3-hydroxy-3-methylbutoxy)-2,4-dimethylpyridin-3-yl]phenyl]methoxy]phenyl]-1,1-dioxo-1,2-thiazinan-3-one]: the concentration giving a half-maximal response (EC50) was below 300 nM.

As usually defined, the EC50 is the concentration at which the effect is half-maximal. Higher therefore signals weaker potency.
